Results published in ChEMBL document CHEMBL2157867, “2-(4-Chlorophenyl)-2-oxoethyl 4-benzamidobenzoate derivatives, a novel class of SENP1 inhibitors: Virtual screening, synthesis and biological evaluation” (Bioorg Med Chem Lett, 2012).

The compounds below were run against T1, Sentrin-specific protease 1 (Homo sapiens, UniProt Q9P0U3) (assay: Inhibition of recombinant His-tagged SENP1 catalytic domain expressed in Escherichia coli BL21(DE3) using His-tagged deltaRanGAP-SUMO2 as substrate incubated for 10 mins prior to substrate addition measured after 45 mins by SDS-PAGE analysis).
T1 sequence (Q9P0U3 whole entry): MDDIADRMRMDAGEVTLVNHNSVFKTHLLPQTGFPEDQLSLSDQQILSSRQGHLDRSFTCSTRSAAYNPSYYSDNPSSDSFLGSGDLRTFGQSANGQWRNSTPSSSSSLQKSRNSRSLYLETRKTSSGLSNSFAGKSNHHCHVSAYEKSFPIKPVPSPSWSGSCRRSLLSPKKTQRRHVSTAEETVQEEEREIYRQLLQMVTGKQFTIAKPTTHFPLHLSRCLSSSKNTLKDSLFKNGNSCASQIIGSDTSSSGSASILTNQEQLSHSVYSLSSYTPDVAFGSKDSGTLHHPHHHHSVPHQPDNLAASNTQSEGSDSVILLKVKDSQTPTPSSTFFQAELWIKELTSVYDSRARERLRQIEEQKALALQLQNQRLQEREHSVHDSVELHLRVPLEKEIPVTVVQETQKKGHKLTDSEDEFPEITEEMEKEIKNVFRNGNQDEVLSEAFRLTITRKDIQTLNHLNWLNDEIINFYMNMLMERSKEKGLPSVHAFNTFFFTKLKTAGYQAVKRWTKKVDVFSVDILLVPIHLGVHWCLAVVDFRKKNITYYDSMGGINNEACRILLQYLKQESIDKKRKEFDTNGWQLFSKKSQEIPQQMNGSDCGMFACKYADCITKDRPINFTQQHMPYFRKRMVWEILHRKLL

IC50, > 50 µM:
Nc1cccc(C(=O)Nc2ccc(C(=O)OCC(=O)c3ccc(Cl)cc3)cc2)c1, CCOc1ccc(C(=O)Nc2ccc(C(=O)OCC(=O)c3ccc(Cl)cc3)cc2)cc1OCC, O=C(COC(=O)c1ccc(NC(=O)c2cccc(O)c2)cc1)c1ccc(Cl)cc1, COc1ccc(C(=O)Nc2ccc(C(=O)OCC(=O)c3ccc(Cl)cc3)cc2)cc1OC
